Measured values reported in patent publication US20120010179A1, “Methods of using a thiazole derivative” (priority 2006, published 2012).

System: patients with COPD
Test: Pulmonary function tests (spirometry FEV1, FVC), tetomilast with inhaled albuterol, crossover study (Example 1)
Type: in vivo, human
Conditions: for Estimated Treatment Effect, change from baseline in FEV1 (tetomilast versus placebo) / Estimated Treatment Effect, change from baseline in FVC (tetomilast versus placebo) / LS Mean change from baseline in FEV1 (repeated measures ANOVA) / LS Mean change from baseline in FVC (repeated measures ANOVA) / Mean (SD) change from baseline in FEV1 / Mean (SD) change from baseline in FVC: steady-state (predose) baseline, Day 8/23; for Estimated Treatment Effect, change from baseline in FEV1 (tetomilast versus placebo) / Estimated Treatment Effect, change from baseline in FVC (tetomilast versus placebo): both with inhaled albuterol; for LS Mean change from baseline in FEV1 (repeated measures ANOVA) / LS Mean change from baseline in FVC (repeated measures ANOVA) / Mean (SD) change from baseline in FEV1 / Mean (SD) change from baseline in FVC: tetomilast 50 mg QD + inhaled albuterol
Procedure: Pulmonary function tests were conducted throughout the study to monitor the subjects' respiratory status. Flow volume curves were collected via spirometry. Combivent® (Boehringer Ingleheim Pharmaceuticals, Inc., Ridgefield Conn.), which was used for short-acting rescues as needed throughout the studies described below, was withheld for 6 hours prior to any spirometric testing. Spirometry testing was performed at screening, baseline (Day 0), and at specific times during the treatment period. Each subject could have up to 5 spirometric readings at any study time point. Spirometric readings were performed using equipment from the central provider, Quantum Research, Inc. (Louisville, Colo.). All spirometry readings were recorded and sent to Quantum Research, Inc. for analysis
For the spirometric readings, the best effort was reported as follows. The highest acceptable forced expiratory volume in one second (FEV1) value was selected as the “best” of the given test session. If two or more FEV1 values were tied as highest, the sum of FEV1 and forced vital capacity (FVC) for those efforts was used. If both conditions were equal between the two efforts, the values reported were taken from the effort that occurred first, chronologically, based on date and time of the effort.
This study was a multicenter, randomized, double-blind, placebo-controlled, crossover, multiple dose, outpatient study in 27 patients with COPD. All subjects underwent a 28-day washout from inhaled corticosteroids and/or long-acting bronchodilators and/or continuous oxygen therapy (≧16 hours per day) and a 7-day washout from oral beta2-agonists and/or oral theophylline salts prior to baseline. Randomized subjects received an 8-day administration of oral placebo or tetomilast 50 mg oral dose (2×25 mg tablets) once daily (QD). On study Day 8, four consecutive doses of inhaled albuterol (90 μg albuterol base per puff) were given via a metered dose inhaler (MDI) and holding chamber (Ventolin®, GlaxoSmithKline, Research Triangle Park, N.C.), one dose every 30 minutes over the course of 90 minutes at doses of 90 μg+90 μg+180 μg+360 μg for a total dose of 720 μg (albuterol base) or 8 puffs.
Subjects entered a 7-day washout period (study days 9 through 15) and were then crossed over to the alternate treatment arm (placebo or tetomilast 50 mg oral dose). On study [0105] Day 23, the inhaled albuterol multiple dosing was repeated.
On Days 1-6 and 17-21, subjects were instructed to take their oral study medication (placebo or tetomilast 50 mg) QD with 8 ounces of water immediately before breakfast. Subjects assigned to the placebo arm received two placebo tablets QD. On Days 7, 8, 16, 22, and 23, subjects took their oral medication (placebo or tetomilast 50 mg) at the clinic in the presence of the study staff.
Combivent® inhalation aerosol use was allowed for short-acting rescue as needed throughout the study except on study days where PK samples were collected, on days when the multiple doses of inhaled albuterol were administered in the clinic, and/or on days when spirometry testing was performed. On all study days where PK samples were collected, Combivent® was withheld 6 hours prior to the PK draw. Additionally, on study Days 8 and 23 (when the multiple doses of inhaled albuterol were administered in the clinic), Combivent® was withheld 6 hours prior to PK assessment and throughout the duration of the clinic visit. Combivent® was withheld for six hours prior to spirometry testing. The recommended dose of Combivent® Inhalation Aerosol is two inhalations four times a day. In this study, subjects were permitted to take additional inhalations as required; however, the total number of inhalations was not to exceed 12 in 24 hours. Subjects were to “test-spray” three times before using for the first time and in cases where the aerosol had not been used for more than 24 hours. […]

CCOc1ccc(-c2nc(-c3cccc(C(=O)O)n3)cs2)cc1OCC [Tetomilast, 2-(3,4-diethoxyphenyl)-4-(2-carboxy-6-pyridyl)thiazole]
FVC steady-state (predose) baseline value, Mean (SD) (predose Day 8/23, on tetomilast 50 mg QD, prior to inhaled albuterol): 2.67 (0.88) L | FEV1 steady-state (predose) baseline value, Mean (predose Day 8/23, on tetomilast 50 mg QD, prior to inhaled albuterol, Table 3): 1.40 L | FVC steady-state (predose) baseline value, Mean (predose Day 8/23, on tetomilast 50 mg QD, prior to inhaled albuterol, Table 4): 2.67 L | Estimated Treatment Effect, change from baseline in FEV1 (tetomilast versus placebo) (5 min postdose): -0.01 L | Estimated Treatment Effect, change from baseline in FVC (tetomilast versus placebo) (5 min postdose): 0.01 L | LS Mean change from baseline in FEV1 (repeated measures ANOVA) (5 min postdose): 0.16 L | LS Mean change from baseline in FVC (repeated measures ANOVA) (5 min postdose): 0.30 L | Mean (SD) change from baseline in FEV1 (5 min postdose): 0.16 (0.09) L | Mean (SD) change from baseline in FVC (5 min postdose): 0.27 (0.25) L | Estimated Treatment Effect, change from baseline in FEV1 (tetomilast versus placebo) (25 min postdose): 0.03 L | Estimated Treatment Effect, change from baseline in FVC (tetomilast versus placebo) (25 min postdose): 0.03 L | LS Mean change from baseline in FEV1 (repeated measures ANOVA) (25 min postdose): 0.19 L | LS Mean change from baseline in FVC (repeated measures ANOVA) (25 min postdose): 0.29 L | Mean (SD) change from baseline in FEV1 (25 min postdose): 0.19 (0.16) L | Mean (SD) change from baseline in FVC (25 min postdose): 0.29 (0.37) L | Estimated Treatment Effect, change from baseline in FEV1 (tetomilast versus placebo) (35 min postdose): 0.03 L | Estimated Treatment Effect, change from baseline in FVC (tetomilast versus placebo) (35 min postdose): 0.01 L | LS Mean change from baseline in FEV1 (repeated measures ANOVA) (35 min postdose): 0.24 L | LS Mean change from baseline in FVC (repeated measures ANOVA) (35 min postdose): 0.39 L | Mean (SD) change from baseline in FEV1 (35 min postdose): 0.24 (0.18) L | Mean (SD) change from baseline in FVC (35 min postdose): 0.39 (0.36) L | Estimated Treatment Effect, change from baseline in FEV1 (tetomilast versus placebo) (55 min postdose): 0.05 L | Estimated Treatment Effect, change from baseline in FVC (tetomilast versus placebo) (55 min postdose): 0.07 L | LS Mean change from baseline in FEV1 (repeated measures ANOVA) (55 min postdose): 0.27 L | LS Mean change from baseline in FVC (repeated measures ANOVA) (55 min postdose): 0.37 L | Mean (SD) change from baseline in FEV1 (55 min postdose): 0.26 (0.20) L | Mean (SD) change from baseline in FVC (55 min postdose): 0.36 (0.37) L | Estimated Treatment Effect, change from baseline in FEV1 (tetomilast versus placebo) (65 min postdose): 0.06 L | Estimated Treatment Effect, change from baseline in FVC (tetomilast versus placebo) (65 min postdose): 0.13 L | LS Mean change from baseline in FEV1 (repeated measures ANOVA) (65 min postdose): 0.30 L | LS Mean change from baseline in FVC (repeated measures ANOVA) (65 min postdose): 0.50 L | Mean (SD) change from baseline in FEV1 (65 min postdose): 0.30 (0.20) L | Mean (SD) change from baseline in FVC (65 min postdose): 0.50 (0.40) L | Estimated Treatment Effect, change from baseline in FEV1 (tetomilast versus placebo) (85 min postdose): 0.05 L | Estimated Treatment Effect, change from baseline in FVC (tetomilast versus placebo) (85 min postdose): 0.05 L | LS Mean change from baseline in FEV1 (repeated measures ANOVA) (85 min postdose): 0.31 L | LS Mean change from baseline in FVC (repeated measures ANOVA) (85 min postdose): 0.45 L | Mean (SD) change from baseline in FEV1 (85 min postdose): 0.31 (0.20) L | Mean (SD) change from baseline in FVC (85 min postdose): 0.45 (0.39) L | Estimated Treatment Effect, change from baseline in FEV1 (tetomilast versus placebo) (95 min postdose): 0.05 L | Estimated Treatment Effect, change from baseline in FVC (tetomilast versus placebo) (95 min postdose): 0.12 L | LS Mean change from baseline in FEV1 (repeated measures ANOVA) (95 min postdose): 0.34 L | LS Mean change from baseline in FVC (repeated measures ANOVA) (95 min postdose): 0.53 L | Mean (SD) change from baseline in FEV1 (95 min postdose): 0.34 (0.21) L | Mean (SD) change from baseline in FVC (95 min postdose): 0.53 (0.42) L | Estimated Treatment Effect, change from baseline in FEV1 (tetomilast versus placebo) (115 min postdose): 0.05 L | Estimated Treatment Effect, change from baseline in FVC (tetomilast versus placebo) (115 min postdose): 0.11 L | LS Mean change from baseline in FEV1 (repeated measures ANOVA) (115 min postdose): 0.33 L | LS Mean change from baseline in FVC (repeated measures ANOVA) (115 min postdose): 0.51 L | Mean (SD) change from baseline in FEV1 (115 min postdose): 0.33 (0.20) L | Mean (SD) change from baseline in FVC (115 min postdose): 0.51 (0.48) L | Estimated Treatment Effect, change from baseline in FEV1 (tetomilast versus placebo) (175 min postdose): 0.06 L | Estimated Treatment Effect, change from baseline in FVC (tetomilast versus placebo) (175 min postdose): 0.07 L | LS Mean change from baseline in FEV1 (repeated measures ANOVA) (175 min postdose): 0.34 L | LS Mean change from baseline in FVC (repeated measures ANOVA) (175 min postdose): 0.50 L | Mean (SD) change from baseline in FEV1 (175 min postdose): 0.34 (0.21) L | Mean (SD) change from baseline in FVC (175 min postdose): 0.50 (0.38) L | Estimated Treatment Effect, change from baseline in FEV1 (tetomilast versus placebo) (235 min postdose): 0.04 L | Estimated Treatment Effect, change from baseline in FVC (tetomilast versus placebo) (235 min postdose): 0.01 L | LS Mean change from baseline in FEV1 (repeated measures ANOVA) (235 min postdose): 0.32 L | LS Mean change from baseline in FVC (repeated measures ANOVA) (235 min postdose): 0.39 L | Mean (SD) change from baseline in FEV1 (235 min postdose): 0.32 (0.25) L | Mean (SD) change from baseline in FVC (235 min postdose): 0.40 (0.50) L | Estimated Treatment Effect, change from baseline in FEV1 (tetomilast versus placebo) (295 min postdose): 0.03 L | Estimated Treatment Effect, change from baseline in FVC (tetomilast versus placebo) (295 min postdose): 0.11 L | LS Mean change from baseline in FEV1 (repeated measures ANOVA) (295 min postdose): 0.23 L | LS Mean change from baseline in FVC (repeated measures ANOVA) (295 min postdose): 0.35 L | Mean (SD) change from baseline in FEV1 (295 min postdose): 0.23 (0.26) L | Mean (SD) change from baseline in FVC (295 min postdose): 0.35 (0.50) L | Estimated Treatment Effect, change from baseline in FEV1 (tetomilast versus placebo) (355 min postdose): 0.11 L | Estimated Treatment Effect, change from baseline in FVC (tetomilast versus placebo) (355 min postdose): 0.17 L | LS Mean change from baseline in FEV1 (repeated measures ANOVA) (355 min postdose): 0.23 L | LS Mean change from baseline in FVC (repeated measures ANOVA) (355 min postdose): 0.32 L | Mean (SD) change from baseline in FEV1 (355 min postdose): 0.23 (0.22) L | Mean (SD) change from baseline in FVC (355 min postdose): 0.32 (0.43) L
